How the values were obtained:
human orexin receptor 1 = human orexin receptor 1 (Homo sapiens (Human), UniProt O43613); assay: Orexin antagonist activity, intracellular calcium FLIPR assay (orexin receptor 1); assay type: cell-based; settings: RBL-2H3 cells stably expressing human orexin receptor 1; Ca2+ dye FLIPR; compound 15 minutes before orexin-A at approximately 80% maximal response; read-out: Human Orexin1R IC50
Experimental: (§1) Orexin antagonist activity was determined by measuring changes in intracellular calcium levels using a Ca^2+ sensitive fluorescent dye. The changes in fluorescent signal were monitored by Fluorescent Imaging Plate Reader (FLIPR™) technology available from Molecular Devices, LLC, U.S.A. Orexin mediated increases in intracellular Ca^2+ concentration were readily detected upon activation with orexin-A. Twenty-four hours prior to the assay, RBL-2H3 cells stably expressing either human orexin receptor 1 or human orexin receptor 2 were seeded in cell culture medium in black, clear-bottom 384-well plates (commercially available from Corning Inc., U.S.A.) and grown overnight at 37° C., 5% CO2. On the day of the assay, cell culture media was removed and cells were loaded with Calcium 5 Dye (commercially sold by Molecular Devices, LLC, U.S.A.) for 1 hour at 37° C., 5% CO2. Test compounds (at 10 point half log concentration response curves from 10 μM) were added to cells for 15 minutes prior to the addition of orexin-A to all wells, to achieve a final concentration that produces approximately an 80% maximal response. The IC50 values were determined from ten point concentration response curves. Curves were generated using the average of two wells for each data point.

human orexin receptor 2 = human orexin receptor 2 (Homo sapiens (Human), UniProt O43614); assay: Orexin antagonist activity, intracellular calcium FLIPR assay (orexin receptor 2); assay type: cell-based; settings: RBL-2H3 cells stably expressing human orexin receptor 2; Ca2+ dye FLIPR; compound 15 minutes before orexin-A at approximately 80% maximal response; read-out: Human Orexin2R IC50
Experimental: as §1

human orexin receptor 2, sequence (O43614 whole entry): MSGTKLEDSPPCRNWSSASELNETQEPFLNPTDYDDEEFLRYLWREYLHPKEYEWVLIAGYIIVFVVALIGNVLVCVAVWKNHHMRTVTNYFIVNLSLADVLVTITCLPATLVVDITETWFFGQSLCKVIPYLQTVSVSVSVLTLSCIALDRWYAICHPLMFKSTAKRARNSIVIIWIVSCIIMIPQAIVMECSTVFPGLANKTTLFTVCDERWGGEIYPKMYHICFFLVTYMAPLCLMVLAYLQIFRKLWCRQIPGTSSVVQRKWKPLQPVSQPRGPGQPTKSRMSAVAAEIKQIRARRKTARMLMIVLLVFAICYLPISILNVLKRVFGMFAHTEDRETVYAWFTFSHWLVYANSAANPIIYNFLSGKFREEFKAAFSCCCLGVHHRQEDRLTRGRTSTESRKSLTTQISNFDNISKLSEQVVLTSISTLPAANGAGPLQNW
human orexin receptor 1, sequence (O43613 whole entry): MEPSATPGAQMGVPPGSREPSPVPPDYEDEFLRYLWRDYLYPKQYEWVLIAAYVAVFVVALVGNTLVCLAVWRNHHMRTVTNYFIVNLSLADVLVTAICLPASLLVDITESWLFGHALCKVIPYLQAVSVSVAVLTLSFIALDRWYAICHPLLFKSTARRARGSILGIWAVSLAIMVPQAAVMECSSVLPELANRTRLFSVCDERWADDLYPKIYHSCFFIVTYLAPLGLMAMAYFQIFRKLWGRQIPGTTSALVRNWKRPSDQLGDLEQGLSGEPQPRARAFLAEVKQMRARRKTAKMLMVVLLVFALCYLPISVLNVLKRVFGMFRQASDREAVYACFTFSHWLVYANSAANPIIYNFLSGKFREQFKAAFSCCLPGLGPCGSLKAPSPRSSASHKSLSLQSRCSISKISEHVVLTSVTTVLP

SMILES | IC50 (human orexin receptor 1) [nM] | IC50 (human orexin receptor 2) [nM]
Cc1ccccc1C(=O)NC1CCC[C@@H]1Nc1nc2ccc(F)cc2s1 (stereo in doubt) [Example 51, N-[(1S,2S)-2-[(6-Fluoro-1,3-benzothiazol-2-yl)amino]cyclopentyl]-2-methylbenzamide] | 250 | 4000
COc1cccc(OC)c1C(=O)NC1C[C@@H](O)CC1Nc1nc2ccc(Cl)cc2s1 (stereo in doubt) [Example 25, N-[(1S,2R,4R)-2-[(6-Chloro-1,3-benzothiazol-2-yl)amino]-4-hydroxycyclopentyl]-2,6-dimethoxybenzamide] | 340 | 130
COc1cccc(OC)c1C(=O)N[C@H]1CCC[C@H]1Nc1nc2ccccc2s1 [Example 5, N-[(1S,2R)-2-[(1,3-Benzothiazol-2-yl)amino]cyclopentyl]-2,6-dimethoxybenzamide] | 12 | 510
O=C(N[C@H]1CCC[C@@H]1Nc1nc2ccc(F)cc2s1)c1c(F)cccc1-n1nccn1 [Example 69, 2-Fluoro-N-[(1S,2S)-2-[(6-fluoro-1,3-benzothiazol-2-yl)amino]cyclopentyl]-6-(2H-1,2,3-triazol-2-yl)benzamide] | 15 | 3200
COc1cccc(OC)c1C(=O)N[C@H]1CCC[C@@H]1Nc1cnc2ccccc2n1 [Example 2, 2,6-Dimethoxy-N-((1S,2S)-2-(quinoxalin-2-ylamino)cyclopentyl)benzamide] | 36 | 6500
COc1cccc(OC)c1C(=O)N[C@@H]1CCC[C@H]1Nc1nc2ccccc2o1 [Example 12, N-[(1R,2R)-2-[(1,3-Benzoxazol-2-yl)amino]cyclopentyl]-2,6-dimethoxy-benzamide] | 470 | 3500
CN(C(=O)c1cc(F)ccc1-n1nccn1)[C@H]1CCC[C@@H]1Nc1nc2ccc(F)cc2s1 [Example 81, 5-Fluoro-N-[(1S,2S)-2-[(6-fluoro-1,3-benzothiazol-2-yl)amino]cyclopentyl]-N-methyl-2-(2H-1,2,3-triazol-2-yl)benzamide] | 1 | 840
O=C(NC1COCC1Nc1nc2ccc(F)cc2s1)c1ccccc1-n1nccn1 (single isomer, unassigned) [Example 101, trans-N-{4-[(6-Fluoro-1,3-benzothiazol-2-yl)amino]oxolan-3-yl}-2-(2H-1,2,3-triazol-2-yl)benzamide] | 730 | 3800
Cc1cccc(C)c1C(=O)N[C@H]1CCC[C@@H]1Nc1nc2ccc(F)cc2s1 [Example 68, N-[(1S,2S)-2-[(6-Fluoro-1,3-benzothiazol-2-yl)amino]cyclopentyl]-2,6-dimethylbenzamide] | 320 | > 10000
Cc1ccc(-n2nccn2)c(C(=O)N[C@H]2CCC[C@@H]2Nc2ccc3ccccc3n2)c1 [Example 20, 5-Methyl-N-[(1S,2S)-2-[(quinolin-2-yl)amino]cyclopentyl]-2-(2H-1,2,3-triazol-2-yl)benzamide] | 290 | 4100
CN(C(=O)c1ccccc1-n1cccn1)[C@H]1CCC[C@@H]1Nc1nc2ccc(F)cc2s1 [Example 79, N-[(1S,2S)-2-[(6-Fluoro-1,3-benzothiazol-2-yl)amino]cyclopentyl]-N-methyl-2-(1H-pyrazol-1-yl)benzamide] | 1 | 1100
CN(C(=O)c1ccccc1-n1nccn1)[C@H]1CCC[C@@H]1Nc1nc2ccc(F)cc2s1 [Example 80, N-[(1S,2S)-2-[(6-Fluoro-1,3-benzothiazol-2-yl)amino]cyclopentyl]-N-methyl-2-(2H-1,2,3-triazol-2-yl)benzamide] | 1 | 650
CC1(Nc2nc3ccc(F)cc3s2)CCCC1NC(=O)c1ccccc1-n1nccn1 (centres unmarked) [Example 107, N-{2-[(6-Fluoro-1,3-benzothiazol-2-yl)amino]-2-methylcyclopentyl}-2-(2H-1,2,3-triazol-2-yl)benzamide] | 7 | 60
COc1cccc(OC)c1C(=O)N[C@H]1CCC[C@H]1Nc1nc2ccccc2o1 [Example 7, N-[(1S,2R)-2-[(1,3-Benzoxazol-2-yl)amino]cyclopentyl]-2,6-dimethoxybenzamide] | 26 | 1900
O=C(N[C@H]1CCC[C@@H]1Nc1nc2ccc(F)cc2s1)c1ccccc1Cl [Example 37, 2-Chloro-N-[(1S,2S)-2-[(6-fluoro-1,3-benzothiazol-2-yl)amino]cyclopentyl]benzamide] | 11 | 3500
O=C(N[C@H]1CCC[C@@H]1Nc1nc2c(F)cc(F)cc2s1)c1ccccc1-n1nccn1 [Example 93, N-[(1S,2S)-2-[(4,6-Difluoro-1,3-benzothiazol-2-yl)amino]cyclopentyl]-2-(2H-1,2,3-triazol-2-yl)benzamide] | 14 | 6200
Cc1ccc(-n2nccn2)c(C(=O)N[C@@H]2COC[C@@H]2Cc2nc3ccccc3s2)c1 (relative stereo) [Example 102, cis-N-[4-(1,3-Benzothiazol-2-ylmethyl)oxolan-3-yl]-5-methyl-2-(2H-1,2,3-triazol-2-yl)benzamide] | 79 | > 10000
COc1cccc(OC)c1C(=O)NC1CCCC1Cc1nc2ccc(Cl)cc2s1 (centres unmarked) [Example 32, N-{2-[(6-Chloro-1,3-benzothiazol-2-yl)methyl]cyclopentyl}-2,6-dimethoxybenzamide] | 900 | 980
COc1ccc(C)cc1C(=O)N[C@H]1CCC[C@@H]1Nc1nc2ccc(F)cc2s1 [Example 67, N-[(1S,2S)-2-[(6-Fluoro-1,3-benzothiazol-2-yl)amino]cyclopentyl]-2-methoxy-5-methylbenzamide] | 110 | 6500
COc1cccc(OC)c1C(=O)N[C@@H]1CCC[C@@H]1Nc1nc2ccc(Cl)cc2s1 [Example 13, N-[(1R,2S)-2-[(6-Chloro-1,3-benzothiazol-2-yl)amino]cyclopentyl]-2,6-dimethoxybenzamide] | 580 | 5300
COc1cccc(OC)c1C(=O)NC1CCCC1Cc1ccc2ccccc2n1 (centres unmarked) [Example 29, 2,6-Dimethoxy-N-[2-(quinolin-2-ylmethyl)cyclopentyl]benzamide] | 550 | 2900
COc1cccc(OC)c1C(=O)N(C)[C@H]1CCC[C@@H]1Nc1nc2ccc(F)cc2s1 [Example 34, N-[(1S,2S)-2-[(6-Fluoro-1,3-benzothiazol-2-yl)amino]cyclopentyl]-2,6-dimethoxy-N-methylbenzamide] | 4.7 | 1100
COc1ccc(OC)c(C(=O)N[C@H]2CCC[C@@H]2Nc2nc3ccc(F)cc3s2)c1 [Example 41, N-[(1S,2S)-2-[(6-Fluoro-1,3-benzothiazol-2-yl)amino]cyclopentyl]-2,5-dimethoxybenzamide] | 16 | 2100
Cc1ccc(-n2nccn2)c(C(=O)NC2CCCC2Cc2ccc3ccccc3n2)c1 (centres unmarked) [Example 27, 5-Methyl-N-[2-(quinolin-2-ylmethyl)cyclopentyl]-2-(2H-1,2,3-triazol-2-yl)benzamide] | 52 | 8500
O=C(NC1CC(F)(F)CC1Nc1nc2ccc(F)cc2s1)c1ccccc1-n1nccn1 (single isomer, unassigned) [Example 103, N-{4,4-Difluoro-2-[(6-fluoro-1,3-benzothiazol-2-yl)amino]cyclopentyl}-2-(2H-1,2,3-triazol-2-yl)benzamide] | 266 | 627

Source: patent US9493432B2, “Cyclopentylbenzamide derivatives and their use for the treatment of psychotic and cognitive disorders” (Takeda Pharmaceutical Company Limited, priority 2013, dated 2016)
